{
  "source": "patent USRE48335E1",
  "about": "“Polymyxin derivatives as antimicrobial compounds” (priority 2014, dated 2020)",
  "key": {"Pseudomonas aeruginosa": {"system": "Pseudomonas aeruginosa", "how_it_was_run": "(§1)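 Lipopeptides, as trifluoroacetate salts, tested for MIC in CAMHB by CLSI broth microdilution, with polymyxin B (sulphate) as comparator.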"}, "Enterobacter cloacae": {"system": "Enterobacter cloacae", "how_it_was_run": "as §1"}, "Acinetobacter baumannii": {"system": "Acinetobacter baumannii", "how_it_was_run": "as §1"}},
  "note": "Positions of bridges follow the written chain, without caps; N, C: chain ends. Non-standard residues stand in square brackets, D forms with d. Residues, ends and D or L forms follow the SMILES beside them. *: point of attachment. X24 = Cc1ccc(C(=O)*)c(C)c1; X25 = Cc1cccc(C(=O)*)c1C; Dab = NCC[C@H](N)C(=O)O; X33 = Cc1cccc(C(=O)*)c1; X39 = O=C(Cc1ccccc1Cl)*; X43 = O=C(c1cccc(F)c1)*; Abu = CC[C@H](N)C(=O)O; Dap = NC[C@H](N)C(=O)O; X35 = O=C(Cc1ccccc1F)*",
  "data": [
    {"smiles": "CC[C@@H]1NC(=O)[C@@H](CC(C)C)NC(=O)[C@H](CCN)NC(=O)[C@@H](NC(=O)[C@H](CN)NC(=O)[C@@H](NC(=O)[C@H](CCN)NC(=O)Cc2ccccc2Cl)[C@@H](C)O)CCNC(=O)[C@H]([C@@H](C)O)NC(=O)[C@H](CCN)NC(=O)[C@H](CCN)NC1=O", "note": "[Compound 84] (X39-[Dab]T[Dap][Dab][Dab][dL][Abu][Dab][Dab]T; lactam 4-C)", "values": [
      {"measurement": "Minimum inhibitory concentration, Pa ATCC 27853", "setting": "Pseudomonas aeruginosa", "value": 0.5, "unit": "µg/mL"},
      {"measurement": "Minimum inhibitory concentration, Pa FADDI-PA022", "setting": "Pseudomonas aeruginosa", "value": 2, "unit": "µg/mL"},
      {"measurement": "Minimum inhibitory concentration, Pa FADDI-PA025", "setting": "Pseudomonas aeruginosa", "value": 2, "unit": "µg/mL"},
      {"measurement": "Minimum inhibitory concentration, Ec FADDI-EC001", "setting": "Enterobacter cloacae", "value": "<0.125", "unit": "µg/mL"},
      {"measurement": "Minimum inhibitory concentration, Ec FADDI-EC003", "setting": "Enterobacter cloacae", "value": 0.25, "unit": "µg/mL"},
      {"measurement": "Minimum inhibitory concentration, Ec FADDI-EC006", "setting": "Enterobacter cloacae", "value": 0.5, "unit": "µg/mL"},
      {"measurement": "Minimum inhibitory concentration, Ab A ATCC 17978", "setting": "Acinetobacter baumannii", "value": 2, "unit": "µg/mL"},
      {"measurement": "Minimum inhibitory concentration, Ab ATCC 19606", "setting": "Acinetobacter baumannii", "value": 8, "unit": "µg/mL"},
      {"measurement": "Minimum inhibitory concentration, Ab FADDI-AB034", "setting": "Acinetobacter baumannii", "value": 2, "unit": "µg/mL"}
    ]},
    {"smiles": "CC[C@@H]1NC(=O)[C@@H](CC(C)C)NC(=O)[C@H](CCN)NC(=O)[C@@H](NC(=O)[C@H](CN)NC(=O)[C@@H](NC(=O)[C@H](CCN)NC(=O)Cc2ccccc2F)[C@@H](C)O)CCNC(=O)[C@H]([C@@H](C)O)NC(=O)[C@H](CCN)NC(=O)[C@H](CCN)NC1=O", "note": "[Compound 85] (X35-[Dab]T[Dap][Dab][Dab][dL][Abu][Dab][Dab]T; lactam 4-C)", "values": [
      {"measurement": "Minimum inhibitory concentration, Pa ATCC 27853", "setting": "Pseudomonas aeruginosa", "value": 0.5, "unit": "µg/mL"},
      {"measurement": "Minimum inhibitory concentration, Pa FADDI-PA022", "setting": "Pseudomonas aeruginosa", "value": 2, "unit": "µg/mL"},
      {"measurement": "Minimum inhibitory concentration, Pa FADDI-PA025", "setting": "Pseudomonas aeruginosa", "value": 2, "unit": "µg/mL"},
      {"measurement": "Minimum inhibitory concentration, Ec FADDI-EC001", "setting": "Enterobacter cloacae", "value": 0.5, "unit": "µg/mL"},
      {"measurement": "Minimum inhibitory concentration, Ec FADDI-EC003", "setting": "Enterobacter cloacae", "value": 1, "unit": "µg/mL"},
      {"measurement": "Minimum inhibitory concentration, Ec FADDI-EC006", "setting": "Enterobacter cloacae", "value": 1, "unit": "µg/mL"},
      {"measurement": "Minimum inhibitory concentration, Ab A ATCC 17978", "setting": "Acinetobacter baumannii", "value": 2, "unit": "µg/mL"},
      {"measurement": "Minimum inhibitory concentration, Ab ATCC 19606", "setting": "Acinetobacter baumannii", "value": 4, "unit": "µg/mL"},
      {"measurement": "Minimum inhibitory concentration, Ab FADDI-AB034", "setting": "Acinetobacter baumannii", "value": 2, "unit": "µg/mL"}
    ]},
    {"smiles": "CC[C@@H]1NC(=O)[C@@H](CC(C)C)NC(=O)[C@H](CCN)NC(=O)[C@@H](NC(=O)[C@H](CN)NC(=O)[C@@H](NC(=O)[C@H](CCN)NC(=O)c2cccc(F)c2)[C@@H](C)O)CCNC(=O)[C@H]([C@@H](C)O)NC(=O)[C@H](CCN)NC(=O)[C@H](CCN)NC1=O", "note": "[Compound 86] (X43-[Dab]T[Dap][Dab][Dab][dL][Abu][Dab][Dab]T; lactam 4-C)", "values": [
      {"measurement": "Minimum inhibitory concentration, Pa ATCC 27853", "setting": "Pseudomonas aeruginosa", "value": 0.5, "unit": "µg/mL"},
      {"measurement": "Minimum inhibitory concentration, Pa FADDI-PA022", "setting": "Pseudomonas aeruginosa", "value": 1, "unit": "µg/mL"},
      {"measurement": "Minimum inhibitory concentration, Pa FADDI-PA025", "setting": "Pseudomonas aeruginosa", "value": 2, "unit": "µg/mL"},
      {"measurement": "Minimum inhibitory concentration, Ec FADDI-EC001", "setting": "Enterobacter cloacae", "value": 1, "unit": "µg/mL"},
      {"measurement": "Minimum inhibitory concentration, Ec FADDI-EC003", "setting": "Enterobacter cloacae", "value": 1, "unit": "µg/mL"},
      {"measurement": "Minimum inhibitory concentration, Ec FADDI-EC006", "setting": "Enterobacter cloacae", "value": 1, "unit": "µg/mL"},
      {"measurement": "Minimum inhibitory concentration, Ab A ATCC 17978", "setting": "Acinetobacter baumannii", "value": 2, "unit": "µg/mL"},
      {"measurement": "Minimum inhibitory concentration, Ab ATCC 19606", "setting": "Acinetobacter baumannii", "value": 4, "unit": "µg/mL"},
      {"measurement": "Minimum inhibitory concentration, Ab FADDI-AB034", "setting": "Acinetobacter baumannii", "value": 1, "unit": "µg/mL"}
    ]},
    {"smiles": "CC[C@@H]1NC(=O)[C@@H](CC(C)C)NC(=O)[C@H](CCN)NC(=O)[C@@H](NC(=O)[C@H](CN)NC(=O)[C@@H](NC(=O)[C@H](CCN)NC(=O)c2cccc(C)c2)[C@@H](C)O)CCNC(=O)[C@H]([C@@H](C)O)NC(=O)[C@H](CCN)NC(=O)[C@H](CCN)NC1=O", "note": "[Compound 87] (X33-[Dab]T[Dap][Dab][Dab][dL][Abu][Dab][Dab]T; lactam 4-C)", "values": [
      {"measurement": "Minimum inhibitory concentration, Pa ATCC 27853", "setting": "Pseudomonas aeruginosa", "value": 0.5, "unit": "µg/mL"},
      {"measurement": "Minimum inhibitory concentration, Pa FADDI-PA022", "setting": "Pseudomonas aeruginosa", "value": 1, "unit": "µg/mL"},
      {"measurement": "Minimum inhibitory concentration, Pa FADDI-PA025", "setting": "Pseudomonas aeruginosa", "value": 2, "unit": "µg/mL"},
      {"measurement": "Minimum inhibitory concentration, Ec FADDI-EC001", "setting": "Enterobacter cloacae", "value": 2, "unit": "µg/mL"},
      {"measurement": "Minimum inhibitory concentration, Ec FADDI-EC003", "setting": "Enterobacter cloacae", "value": 1, "unit": "µg/mL"},
      {"measurement": "Minimum inhibitory concentration, Ec FADDI-EC006", "setting": "Enterobacter cloacae", "value": 2, "unit": "µg/mL"},
      {"measurement": "Minimum inhibitory concentration, Ab A ATCC 17978", "setting": "Acinetobacter baumannii", "value": 1, "unit": "µg/mL"},
      {"measurement": "Minimum inhibitory concentration, Ab ATCC 19606", "setting": "Acinetobacter baumannii", "value": 2, "unit": "µg/mL"},
      {"measurement": "Minimum inhibitory concentration, Ab FADDI-AB034", "setting": "Acinetobacter baumannii", "value": 2, "unit": "µg/mL"}
    ]},
    {"smiles": "CC[C@@H]1NC(=O)[C@@H](CC(C)C)NC(=O)[C@H](CCN)NC(=O)[C@@H](NC(=O)[C@H](CN)NC(=O)[C@@H](NC(=O)[C@H](CCN)NC(=O)c2ccc(C)cc2C)[C@@H](C)O)CCNC(=O)[C@H]([C@@H](C)O)NC(=O)[C@H](CCN)NC(=O)[C@H](CCN)NC1=O", "note": "[Compound 89] (X24-[Dab]T[Dap][Dab][Dab][dL][Abu][Dab][Dab]T; lactam 4-C)", "values": [
      {"measurement": "Minimum inhibitory concentration, Pa ATCC 27853", "setting": "Pseudomonas aeruginosa", "value": 0.5, "unit": "µg/mL"},
      {"measurement": "Minimum inhibitory concentration, Pa FADDI-PA022", "setting": "Pseudomonas aeruginosa", "value": 1, "unit": "µg/mL"},
      {"measurement": "Minimum inhibitory concentration, Pa FADDI-PA025", "setting": "Pseudomonas aeruginosa", "value": 4, "unit": "µg/mL"},
      {"measurement": "Minimum inhibitory concentration, Ec FADDI-EC001", "setting": "Enterobacter cloacae", "value": "<0.125", "unit": "µg/mL"},
      {"measurement": "Minimum inhibitory concentration, Ec FADDI-EC003", "setting": "Enterobacter cloacae", "value": "<0.125", "unit": "µg/mL"},
      {"measurement": "Minimum inhibitory concentration, Ec FADDI-EC006", "setting": "Enterobacter cloacae", "value": 2, "unit": "µg/mL"},
      {"measurement": "Minimum inhibitory concentration, Ab A ATCC 17978", "setting": "Acinetobacter baumannii", "value": 1, "unit": "µg/mL"},
      {"measurement": "Minimum inhibitory concentration, Ab ATCC 19606", "setting": "Acinetobacter baumannii", "value": 4, "unit": "µg/mL"},
      {"measurement": "Minimum inhibitory concentration, Ab FADDI-AB034", "setting": "Acinetobacter baumannii", "value": 1, "unit": "µg/mL"}
    ]},
    {"smiles": "CC[C@@H]1NC(=O)[C@@H](CC(C)C)NC(=O)[C@H](CCN)NC(=O)[C@@H](NC(=O)[C@H](CN)NC(=O)[C@@H](NC(=O)[C@H](CCN)NC(=O)c2cccc(C)c2C)[C@@H](C)O)CCNC(=O)[C@H]([C@@H](C)O)NC(=O)[C@H](CCN)NC(=O)[C@H](CCN)NC1=O", "note": "[Compound 91] (X25-[Dab]T[Dap][Dab][Dab][dL][Abu][Dab][Dab]T; lactam 4-C)", "values": [
      {"measurement": "Minimum inhibitory concentration, Pa ATCC 27853", "setting": "Pseudomonas aeruginosa", "value": 0.5, "unit": "µg/mL"},
      {"measurement": "Minimum inhibitory concentration, Pa FADDI-PA022", "setting": "Pseudomonas aeruginosa", "value": 2, "unit": "µg/mL"},
      {"measurement": "Minimum inhibitory concentration, Pa FADDI-PA025", "setting": "Pseudomonas aeruginosa", "value": 4, "unit": "µg/mL"},
      {"measurement": "Minimum inhibitory concentration, Ec FADDI-EC001", "setting": "Enterobacter cloacae", "value": "<0.125", "unit": "µg/mL"},
      {"measurement": "Minimum inhibitory concentration, Ec FADDI-EC003", "setting": "Enterobacter cloacae", "value": "<0.125", "unit": "µg/mL"},
      {"measurement": "Minimum inhibitory concentration, Ec FADDI-EC006", "setting": "Enterobacter cloacae", "value": 0.5, "unit": "µg/mL"},
      {"measurement": "Minimum inhibitory concentration, Ab A ATCC 17978", "setting": "Acinetobacter baumannii", "value": 1, "unit": "µg/mL"},
      {"measurement": "Minimum inhibitory concentration, Ab ATCC 19606", "setting": "Acinetobacter baumannii", "value": 4, "unit": "µg/mL"},
      {"measurement": "Minimum inhibitory concentration, Ab FADDI-AB034", "setting": "Acinetobacter baumannii", "value": 2, "unit": "µg/mL"}
    ]}
  ]
}
